Assay results taken from patent publication US20220192192A1, “LOW VOLATILITY HERBICIDAL COMPOSITIONS” (Monsanto Technology LLC, priority 2012, published 2022).

Experiment: Measurement of dicamba volatility (humidome): dicamba concentration in air by LC-MS
Type: physicochemical
Details: di- and tri-carboxylic acids tested in dicamba compositions
Description: Humidomes obtained from Hummert International (Part Nos 14-3850-2 for humidomes and 11-3050-1 for 1020 flat tray) were modified by cutting a 2.2 cm diameter hole on one end approximately 5 cm from the top to allow for insertion of a glass air sampling tube (22 mm OD) containing a polyurethane foam (PUF) filter. The sampling tube was secured with a VITON o-ring on each side of the humidome wall. The air sampling tube external to the humidome was fitted with tubing that was connected to a vacuum manifold immediately prior to sampling. […] The flat tray bottom containing the dicamba formulation on soil was covered with the humidome lid and the lid was secured with clamps. The assembled humidomes were placed in a temperature and humidity controlled environment and connected to a vacuum manifold through the air sampling line. Air was drawn through the humidome and PUF at a rate of 2 liters per minute (LPM) for 24 hours at which point the air sampling was stopped. The humidomes were then removed from the controlled environment and the PUF filter was removed. The PUF filter was extracted with 20 mL of methanol and the solution was analyzed for dicamba concentration using LC-MS methods known in the art. […] Where glyphosate was added or was part of the formulation, glyphosate was present at a concentration of 2.4% a.e. or 2.0 lb/A a.e. Where 2,4-D was added or was part of the formulation, 2,4-D was present at 2.4% ae or 2.0 lb/A ae at 10 gallons per acre (GPA). The growth chambers were set at 35° C. and 40% relative humidity (RH). For each composition four separate humidome boxes were sprayed to have 4 replicate measurements for each formulation. Tables 3-1 to 3-12 below provide the mean concentration of dicamba in air for the tested formulations.

| effect of the acid on dicamba volatility | Compound |
| --- | --- |
| did not reduce dicamba volatility | O=C(O)CC(O)(CC(=O)O)C(=O)O [citric acid] |
| did not reduce dicamba volatility | O=C(O)CCC(=O)O [succinic acid] |
| did not reduce dicamba volatility | O=C(O)C(=O)O [oxalic acid] |
| did not reduce dicamba volatility | O=C(O)CC(O)C(=O)O (stereo not shown) [malic acid] |
